# Measured values published in patent publication US20230372272A1, “USE OF CYSTINE AND DERIVATIVES THEREOF AS ANTI-THROMBOTIC AND THROMBOLYTIC AGENTS” (Georgia Tech Research Corporation, priority 2020, published 2023).
# Key:
# [1] = tested on: VWF- and platelet-rich white thrombi; assay: Lysis of platelet-rich white thrombi in collagen-coated stenotic capillary tube under arterial shear (perfusion of lytic agents); format: cell-based, Porcine
# Experimental: Collagen Coating: The stenotic glass test sections (inner diameter=1.5 mm) described herein were made by the Chemistry and Biochemistry Glass Shop at Georgia Institute of Technology. The % stenosis by diameter reduction ranged from 60% to 80%. Fibrillar equine collagen (type I; Chrono-Log Corporation, Havertown, PA) was diluted 9:1 in NaCl (Sigma-Aldrich, St. Louis, MO) and incubated in the test section at the stenosis for 24 h in a warm, moist environment (Para, A., Bark, D., Lin, A. & Ku, D. Rapid platelet accumulation leading to thrombotic occlusion. Ann Biomed Eng 39, 1961-1971, 2011; Para, A. N. & Ku, D. N. A low-volume, single pass in-vitro system of high shear thrombosis in a stenosis. Thromb Res 131, 418-424, 2013).
# (§1) Blood Collection: Porcine blood was collected at a local abattoir immediately following slaughter into 3.5 U/mL heparin (Thermo Fisher Scientific, Waltham, MA) or 3.2% sodium citrate (Sigma-Aldrich, St. Louis, MO). Whole blood was gently agitated using an Orbit LS shaker (Laboratory Supply Network, Atkinson, NH) until perfusion and used in experiments as soon as possible the same day as collection.
# Syringe Perfusion: Lightly heparinized whole blood was perfused through the stenotic test section using a syringe pump. The flow rate was set so that the initial wall shear rate in the stenosis was 3,500 s^−1. A pressure transducer was connected in-line upstream of the stenosis (FIG. 2A). A dissecting microscope with a camera (PCO-Tech Incorporated, Romulus, MI) was used to capture images in real-time during perfusion. Blood perfusion continued until the upstream pressure increased by 30 mmHg (equivalent to an arterial pressure head in vivo) as a result of platelet thrombus formation in the stenotic section. Perfusion with a syringe pump (constant flow rate over constant pressure head) ensured that the thrombi were never fully occlusive, allowing subsequent perfusion for the induction of lysis.
# (§2) Pharmacologic Agents: Recombinant human tPA (Sigma-Aldrich, St. Louis, MO), recombinant human ADAMTS-13 (MyBiosource, San Diego, CA), abciximab (ReoPro was kindly provided by Dr. Kevin Maher at Emory/CHOA), NAC (Thermo Fisher Scientific, Waltham, MA), and DiNAC (Cayman Chemical, Ann Arbor, Ml) or control (PBS) treatments were perfused for an hour at a flow rate of 1 ml/min. Agent solutions were made by dissolution or dilution in PBS. The in vitro flow system setup and image acquisition are shown in FIG. 2, and the concentrations of each agent are detailed in Table 2.
# Real-time image capture (5 frames per second) of the stenosis continued throughout treatment perfusion.
# Data Analysis: The thrombi surface area (which was colored green) was calculated using manual pixel counting in the open-source GNU Image Manipulation Program (GIMP, Version 2.10.8, 1995-2018). Surface area reduction was calculated by % pixel reduction versus the occlusion image. Analysis of variance (ANOVA) was used to test for statistical differences between groups, with the significance set at p<0.05.
# In this example, a stenotic capillary tube model, which potentiates VWF- and platelet-rich white thrombi in an arterial setting on a collagen-coated stenosis was used (Para, A., Bark, D., Lin, A. & Ku, D. Rapid platelet accumulation leading to thrombotic occlusion. Ann Biomed Eng 39, 1961-1971, 2011; Ku, D. N. & Flannery, C. J. Development of a flow-through system to create occluding thrombus. Biorheology 44, 273-284, 2007; Para, A. N. & Ku, D. N. A low-volume, single pass in-vitro system of high shear thrombosis in a stenosis. Thromb Res 131, 418-424, 2013) to test lysis of 90% occlusive white thrombi (FIG. 2) and perfused low (2 mM) and high (20 mM) concentrations of NAC and DiNAC solutions. As illustrated in FIG. 2. DiNAC, but not NAC, achieved thrombolysis over 60 minutes of perfusion (FIG. 3A-3D). 2 mM and 20 mM DiNAC lysed most of the thrombi (>95%) within 14 min and 1.5 min, respectively (FIG. 3A-3B).
# [2] = tested on: fibrin clots from recalcified citrated whole blood; assay: Red clot lysis under stagnant conditions, whole blood clots; format: cell-based, Porcine; conditions: whole blood clot, 48 h; DiNAC and NAC at 2 mM
# Source text: as §1
# (§3) Red clot formation and lysis: Platelet rich plasma (PRP) was made by separating citrated whole blood via gravity over a 2 h period and collecting the supernatant. Separation via gravity was employed instead of centrifugation to avoid platelet damage and activation. Citrated whole blood or PRP was then recalcified with CaCl2 to a final [Ca^2+] of 10 mM (Griffin, M. T., Kim, D. & Ku, D. N. Shear-induced platelet aggregation: 3D-grayscale microfluidics for repeatable and localized occlusive thrombosis. Biomicrofluidics 13, 2019), and 200 μl was transferred into 500 μal centrifuge tubes and allowed to clot and retract for 30 min. The clot was then incubated with 100 μl of either agent or control solution. The treatment solution was exchanged by removing the top 100 μl and replacement with fresh solution at 3, 6, 12, 24, and 48 h of incubation. The weight of the tube was measured immediately post-clot formation and at each timepoint after removal of old solution and prior to the replacement with fresh solution.
# [3] = tested on: fibrin clots from recalcified platelet rich plasma (PRP); assay: Red clot lysis under stagnant conditions, PRP clots; format: cell-based, Porcine; conditions: 48 h, DiNAC and NAC at 2 mM
# Source text: as §1, §3
# white clots = assay: Example 3: thrombolytic activity on white clots, procedures of Examples 1 and 2; format: cell-based, Porcine; conditions: DiNAC: clot breakup over 10 minutes; comparators at 1 hour
# Experimental: In this example, use of DiNAC and other agents as anti-thrombotic agents was tested. A white clot formation in the artery system was modeled by a collagen coated glass capillary tube (Ku DN, Flannery CJ. Development of a flow-through system to create occluding thrombus, Biorheology, 2007; 44(4)273-84). Porcine blood was perfused into the capillary tube using a constant pressure head or a constant flow rate (Para AN, Ku DN. A low-volume, single pass in vitro system of high shear thrombosis in a stenosis, Thrombosis Research, 2013, 131(5):418-24). After clot formation, a thrombolytic agent was perfused into the capillary tube. The detailed capillary tube experimental protocol is summarized below.
# In this example, the thrombolytic activity of DiNAC and other lytic agents was tested, using the procedures described in Examples 1 and 2.
# [4] = tested on: platelet-rich thrombi from heparinized human whole blood; assay: Example 4: thrombolysis of human blood thrombi in 3 mm collagen-coated stenotic capillary tubes; format: cell-based; conditions: human whole blood thrombus
# Experimental: In this example, an in-vitro randomized trial was performed using heparinized human blood in collagen-coated glass capillary tubes with a designed stenosis, mimicking arterial disease. Heparinized human blood was then infused through 3 mm capillary tubes at a constant flow rate, during which near-occlusive thrombi were formed at the region of stenosis (FIG. 11). DiNAC was then infused at a constant flow rate through the capillary tubes in order to observe thrombolytic activity, using a combination of live pressure monitoring and microscopic image capture. All infusions were control-matched with a phosphate-buffered saline solution in lieu of DiNAC.
# pH of DiNAC solution = format: physicochemical
# Experimental: as §2
# To confirm the efficacy of DiNAC, the dose response was tested at increasing concentrations of 0.02, 0.2, 2, and 20 mM. The thrombus area reduction was dependent on the concentration of DiNAC (FIG. 4). […] Considering the practical use of the DiNAC as a thrombolytic in a clinical setting, the 20 mM DiNAC with sodium bicarbonate to a final pH=7. Neutralization of 20 mM DiNAC reduced the variance from 47% to 12% in surface area reduction (44±47% vs 59±12%, p=0.77, FIG. 4).
# FeCl-induced thrombi = conditions: NAC treatment alone, in vivo mice model; cited from earlier work
# [5] = tested on: FeCl3 injury-induced thrombus; parameters: dose or concentration left out as unconfirmed; conditions: after a 60 min treatment; FeCl3 injury in vivo; ADAMTS-13; cited from earlier work
molecule,measurement,setting,value
"CC(=O)N[C@@H](CSSC[C@H](NC(C)=O)C(=O)O)C(=O)O [DiNAC, N,N′-diacetyl-cystine]",thrombus area vs control,"[1]; 0.02 mM, 60 min perfusion",not significantly different from the control
same,thrombus area reduction,"[1]; 0.2 mM, 60 min perfusion",46±15%
same,thrombus surface area reduction,"[1]; 20 mM acidic solution (not neutralized), 60 min perfusion",44±47%
same,thrombus surface area reduction,"[1]; 20 mM neutralized with sodium bicarbonate to pH=7, 60 min perfusion",59±12%
same,whole blood clot lysis over 48 h,[2],no effect on red clots
same,PRP clot lysis over 48 h,[3],no effect on red clots
same,thrombolytic activity on white clots,white clots,highly effective at causing lysis of white clots
same,time to complete lysis of the white clot,[4]; 20 mM perfusion,≤ 10 min
same,pH of solution,pH of DiNAC solution; 2 mM solution,7
same,pH of solution,pH of DiNAC solution; 20 mM solution,2
"CC(=O)N[C@@H](CS)C(=O)O [NAC, N-acetylcysteine, reference compound]",lysis on perfusion,"[1]; 2 mM and 20 mM, 60 min perfusion",minimal lysis
same,thrombus surface area reduction,"[1]; 2 mM, 60 min perfusion",< 20%
same,lysis after 60 min perfusion,"[1]; 20 mM, 60 min",minimal lysis
same,whole blood clot lysis over 48 h,[2],no effect on red clots
same,PRP clot lysis over 48 h,[3],no effect on red clots
same,thrombolytic activity on white clots,white clots,minimal effects with no perfusion at 1 hour
same,reperfusion,FeCl-induced thrombi,< 40%
"ADAMTS-13: recombinant human ADAMTS-13, a protease that cleaves VWF (protein, UniProt Q76LX8 75-1427, looked up) A disintegrin and …: AAGGILHLELLVAVGPDVFQAHQEDTERYVLTNLNIGAELLRDPSLGAQFRVHLVKMVILTEPEGAPNITANLTSSLLSVCGWSQTINPEDDTDPGHADLVLYITRFDLELPDGNRQVRGVTQLGGACSPTWSCLITEDTGFDLGVTIAHEIGHSFGLEHDGAPGSGCGPSGHVMASDGAAPRAGLAWSPCSRRQLLSLLSAGRARCVWDPPRPQPGSAGHPPDAQPGLYYSANEQCRVAFGPKAVACTFAREHLDMCQALSCHTDPLDQSSCSRLLVPLLDGTECGVEKWCSKGRCRSLVELTPIAAVHGRWSSWGPRSPCSRSCGGGVVTRRRQCNNPRPAFGGRACVGADLQAEMCNTQACEKTQLEFMSQQCARTDGQPLRSSPGGASFYHWGAAVPHSQGDALCRHMCRAIGESFIMKRGDSFLDGTRCMPSGPREDGTLSLCVSGSCRTFGCDGRMDSQQVWDRCQVCGGDNSTCSPRKGSFTAGRAREYVTFLTVTPNLTSVYIANHRPLFTHLAVRIGGRYVVAGKMSISPNTTYPSLLEDGRVEYRVALTEDRLPRLEEIRIWGPLQEDADIQVYRRYGEEYGNLTRPDITFTYFQPKPRQAWVWAAVRGPCSVSCGAGLRWVNYSCLDQARKELVETVQCQGSQQPPAWPEACVLEPCPPYWAVGDFGPCSASCGGGLRERPVRCVEAQGSLLKTLPPARCRAGAQQPAVALETCNPQPCPARWEVSEPSSCTSAGGAGLALENETCVPGADGLEAPVTEGPGSVDEKLPAPEPCVGMSCPPGWGHLDATSAGEKAPSPWGSIRTGAQAAHVWTPAAGSCSVSCGRGLMELRFLCMDSALRVPVQEELCGLASKPGSRREVCQAVPCPARWQYKLAACSVSCGRGVVRRILYCARAHGEDDGEEILLDTQCQGLPRPEPQEACSLEPCPPRWKVMSLGPCSASCGLGTARRSVACVQLDQGQDVEVDEAACAALVRPEASVPCLIADCTYRWHVGTWMECSVSCGDGIQRRRDTCLGPQAQAPVPADFCQHLPKPVTVRGCWAGPCVGQGTPSLVPHEEAAAPGRTTATPAGASLEWSQARGLLFSPAPQPRRLLPGPQENSVQSSACGRQHLEPTGTIDMRGPGQADCAVAIGRPLGEVVTLRVLESSLNCSAGDMLLLWGRLTWRKMCRKLLDMTFSSKTNTLVVRQRCGRPGGGVLLRYGSQLAPETFYRECDMQLFGPWGEIVSPSLSPATSNAGGCRLFINVAPHARIAIHALATNMGAGTEGANASYILIRDTHSLRTTAFHGQQVLYWESESSQAEMEFSEGFLKAQASLRGQYWTLQSWVPEMQDPQSWKGKEGT",thrombus area reduction,"[1]; 1 g/mL (Table 2), 60 min perfusion",19±8%
same,whole blood clot lysis over 48 h,[2],no effect on red clots
same,PRP clot lysis over 48 h,[3],no effect on red clots
same,thrombolytic activity on white clots,white clots,minimal effects with no perfusion at 1 hour
same,effect on clots and flow,[4]; perfusion,did not alter the clots or restore flow
same,reduction of thrombus size,[5],62.3%
"Abciximab: inhibits platelet thrombus formation by blocking the glycoprotein IIb/IIIa through an antibody (antibody, chains of the INN, looked up, V domains shown, Fab) VH: EVQLQQSGTVLARPGASVKMSCEASGYTFTNYWMHWVKQRPGQGLEWIGAIYPGNSDTSYIQKFKGKAKLTAVTSTTSVYMELSSLTNEDSAVYYCTLYDGYYVFAYWGQGTLVTVSA VL: EIVLTQSPVTLSVTPGDSVSLSCRASRDISNNLHWFQQTSHESPRLLIKYASQSMSGIPSRFSGSGSGTDFTLSINSVETEDFGMYFCQQTNSWPYTFGGGTKLEIK",reduction in thrombus area,"[1]; […] (Table 2), 60 min perfusion",22±11%
same,thrombolytic activity on white clots,white clots,minimal effects with no perfusion at 1 hour
